Nine compounds from ChEMBL document CHEMBL1909590, “Design, synthesis and docking studies of new quinoline-3-carbohydrazide derivatives as antitubercular agents” (2011) can be followed below.

≈ marks a conversion by molar mass, not a printed value.

What all share (type): functional
The subject of one assay is Streptococcus pyogenes. In words: Antibacterial activity against Streptococcus pyogenes clinical isolate after 18 to 25 hrs by serial plate dilution method.
Assay [1] relates to Mycobacterium tuberculosis. Nature of the assay: Antimycobacterial activity against Mycobacterium tuberculosis H37Rv ATCC 27294 using compound level ranging from 0.3125 to 5 ug/mL after 7 days by resazurin reduction test. Particulars: H37Rv ATCC 27294, 168 h. In general terms: Resazurin is reduced to fluorescent resorufin, in cell work by metabolically active cells.
Another assay has as its system Escherichia coli. Nature of the assay: Antibacterial activity against Escherichia coli ATCC 25922 after 18 to 25 hrs by serial plate dilution method.
Assay [2] deals with Mycolicibacterium smegmatis. Nature of the assay: Antimycobacterial activity against Mycobacterium smegmatis MC2 ATCC 19420 using compound level ranging from 0.3125 to 5 ug/mL after 7 days by resazurin reduction test. Particulars: MC2 ATCC 19420, 168 h.
Assay [3] deals with Mycobacterium tuberculosis. Nature of the assay: Growth inhibition of Mycobacterium tuberculosis H37Rv ATCC 27294 using compound level ranging from 1 to 100 ug/mL after 7 days by resazurin reduction test.
Assay [4] has as its system Mycolicibacterium smegmatis. In words: Antimycobacterial activity against Mycobacterium smegmatis MC2 ATCC 19420 using compound level ranging from 1 to 100 ug/mL after 7 days by resazurin reduction test. The settings on record: MC2 ATCC 19420, 168 h.
The next assay has as its system Klebsiella pneumoniae. In words: Antibacterial activity against Klebsiella pneumoniae clinical isolates after 18 to 25 hrs by serial plate dilution method.
Assay [5] deals with Mycolicibacterium fortuitum. Nature of the assay: Antimycobacterial activity against Mycobacterium fortuitum ATCC 19542 using compound level ranging from 1 to 100 ug/mL after 7 days by resazurin reduction test. The settings on record: ATCC 19542, 168 h.
The test system of a further assay is Pseudomonas aeruginosa. Nature of the assay: Antibacterial activity against Pseudomonas aeruginosa ATCC 27853 after 18 to 25 hrs by serial plate dilution method.
Assay [6] deals with Mycobacterium tuberculosis. Nature of the assay: Antimycobacterial activity against Mycobacterium tuberculosis H37Rv ATCC 27294 using compound level ranging from 1 to 100 ug/mL after 7 days by resazurin reduction test. The settings on record: H37Rv ATCC 27294, 168 h.
Assay [7] deals with Mycolicibacterium fortuitum. In words: Antimycobacterial activity against Mycobacterium fortuitum ATCC 19542 using compound level ranging from 0.3125 to 5 ug/mL after 7 days by resazurin reduction test. The settings on record: ATCC 19542, 168 h.
Another assay concerns Staphylococcus aureus. In words: Antibacterial activity against Staphylococcus aureus ATCC 25923 after 18 to 25 hrs by serial plate dilution method.

One may read the MIC as the lowest concentration that inhibits growth of the organism. A low value points to a more susceptible organism.

Consider `Cc1ccc(NC(=O)NNC(=O)c2cnc3c(C(F)(F)F)cccc3c2O)cc1`, for which the MIC against Streptococcus pyogenes was 0.4 µg/mL (≈ 0.989 µM); in assay [1], 1.25 µg/mL (≈ 3.09 µM); against Escherichia coli, 0.2 µg/mL (≈ 0.495 µM); in assay [2], 10 µg/mL (≈ 24.7 µM); in assay [4], 10 µg/mL (≈ 24.7 µM); in the assay with Klebsiella pneumoniae, 0.1 µg/mL (≈ 0.247 µM). Besides, the MIC amounted to 10 µg/mL (≈ 24.7 µM) in assay [5]; 0.8 µg/mL (≈ 1.98 µM) in the assay with Pseudomonas aeruginosa; 1 µg/mL (≈ 2.47 µM) in [6]; 10 µg/mL (≈ 24.7 µM) in [7]; 0.8 µg/mL (≈ 1.98 µM) against Staphylococcus aureus. For the same compound, in [3], the “growth inhibition (GI)” value is on record as 90%.

On to `COc1ccc(/C=N/NC(=O)c2cnc3c(C(F)(F)F)cccc3c2O)cc1`, for which the MIC amounted to 0.4 µg/mL (≈ 1.03 µM) against Streptococcus pyogenes; 1.25 µg/mL (≈ 3.21 µM) in [1]; 0.4 µg/mL (≈ 1.03 µM) in the assay with Escherichia coli; 10 µg/mL (≈ 25.7 µM) in assay [2]; 10 µg/mL (≈ 25.7 µM) in [4]; 0.8 µg/mL (≈ 2.05 µM) in the assay with Klebsiella pneumoniae. The MIC worked out at 10 µg/mL (≈ 25.7 µM) in assay [5]; 0.8 µg/mL (≈ 2.05 µM) against Pseudomonas aeruginosa; 1 µg/mL (≈ 2.57 µM) in assay [6]; 10 µg/mL (≈ 25.7 µM) in [7]; 0.8 µg/mL (≈ 2.05 µM) in the assay on Staphylococcus aureus. For the same compound, the “growth inhibition (GI)” value in assay [3] amounted to 90%.

In the case of `Cn1cccc1/C=N\NC(=O)c1cnc2c(C(F)(F)F)cccc2c1O`, the MIC in the assay on Streptococcus pyogenes stood at 0.4 µg/mL (≈ 1.1 µM); in assay [1] it was 0.625 µg/mL (≈ 1.73 µM); against Escherichia coli, 0.1 µg/mL (≈ 0.276 µM); in assay [2] it was 1.25 µg/mL (≈ 3.45 µM); in [4] it was 1 µg/mL (≈ 2.76 µM); against Klebsiella pneumoniae it was 0.1 µg/mL (≈ 0.276 µM). Also, the MIC in assay [5] is 10 µg/mL (≈ 27.6 µM); with Pseudomonas aeruginosa, 0.4 µg/mL (≈ 1.1 µM); in assay [6], 1 µg/mL (≈ 2.76 µM); in [7] it was 10 µg/mL (≈ 27.6 µM); against Staphylococcus aureus it was 0.8 µg/mL (≈ 2.21 µM). Further, the “growth inhibition (GI)” value in assay [3] turned out to be 90%.

Regarding `COc1ccc(/C=N/NC(=O)c2cnc3c(C(F)(F)F)cccc3c2O)c(F)c1`, the MIC is 0.4 µg/mL (≈ 0.982 µM) against Streptococcus pyogenes; 0.625 µg/mL (≈ 1.53 µM) in assay [1]; 0.1 µg/mL (≈ 0.246 µM) in the assay on Escherichia coli; 10 µg/mL (≈ 24.6 µM) in assay [2]; 10 µg/mL (≈ 24.6 µM) in assay [4]; 0.1 µg/mL (≈ 0.246 µM) in the assay with Klebsiella pneumoniae. Moreover, the MIC in assay [5] stood at 10 µg/mL (≈ 24.6 µM); against Pseudomonas aeruginosa, 0.4 µg/mL (≈ 0.982 µM); in [6], 1 µg/mL (≈ 2.46 µM); in [7], 10 µg/mL (≈ 24.6 µM); with Staphylococcus aureus it was 0.8 µg/mL (≈ 1.96 µM). Besides, the “growth inhibition (GI)” value in assay [3] was determined as 95%.

For `Cc1cccc2c(/C=N/NC(=O)c3cnc4c(C(F)(F)F)cccc4c3O)c[nH]c12`, the MIC with Streptococcus pyogenes amounted to 0.4 µg/mL (≈ 0.97 µM); in assay [1] it was 0.625 µg/mL (≈ 1.52 µM); in the assay with Escherichia coli, 0.1 µg/mL (≈ 0.243 µM); in assay [2], 1.25 µg/mL (≈ 3.03 µM); in [4], 1 µg/mL (≈ 2.43 µM); in the assay with Klebsiella pneumoniae, 0.1 µg/mL (≈ 0.243 µM). Further, the MIC came out at 10 µg/mL (≈ 24.3 µM) in [5]; 0.4 µg/mL (≈ 0.97 µM) in the assay with Pseudomonas aeruginosa; 1 µg/mL (≈ 2.43 µM) in assay [6]; 10 µg/mL (≈ 24.3 µM) in [7]; 0.8 µg/mL (≈ 1.94 µM) in the assay with Staphylococcus aureus. Further, the “growth inhibition (GI)” value in assay [3] stood at 95%.

Take `O=C(NNC(=S)Nc1ccccc1F)c1cnc2c(C(F)(F)F)cccc2c1O`: the MIC was 0.4 µg/mL (≈ 0.943 µM) in the assay with Streptococcus pyogenes; 0.625 µg/mL (≈ 1.47 µM) in assay [1]; 0.1 µg/mL (≈ 0.236 µM) against Escherichia coli; 10 µg/mL (≈ 23.6 µM) in assay [2]; 10 µg/mL (≈ 23.6 µM) in [4]; 0.1 µg/mL (≈ 0.236 µM) in the assay on Klebsiella pneumoniae. Also, the MIC turned out to be 10 µg/mL (≈ 23.6 µM) in assay [5]; 0.4 µg/mL (≈ 0.943 µM) against Pseudomonas aeruginosa; 1 µg/mL (≈ 2.36 µM) in [6]; 10 µg/mL (≈ 23.6 µM) in [7]; 0.8 µg/mL (≈ 1.89 µM) against Staphylococcus aureus. In addition, the “growth inhibition (GI)” value in [3] is 95%.

Turning to `Cc1[nH]cnc1/C=N/NC(=O)c1cnc2c(C(F)(F)F)cccc2c1O`, the MIC in the assay with Streptococcus pyogenes stood at 1.6 µg/mL (≈ 4.4 µM); in assay [1], 1.25 µg/mL (≈ 3.44 µM); against Escherichia coli it was 0.4 µg/mL (≈ 1.1 µM); in [2], 1.25 µg/mL (≈ 3.44 µM); in [4], 1 µg/mL (≈ 2.75 µM); with Klebsiella pneumoniae, 0.1 µg/mL (≈ 0.275 µM). Besides, the MIC in assay [5] was found to be 10 µg/mL (≈ 27.5 µM); against Pseudomonas aeruginosa, 0.4 µg/mL (≈ 1.1 µM); in assay [6], 1 µg/mL (≈ 2.75 µM); in assay [7], 12.5 µg/mL (≈ 34.4 µM); in the assay on Staphylococcus aureus, 0.8 µg/mL (≈ 2.2 µM). The “growth inhibition (GI)” value in [3] is recorded as 90%.

For `O=C(N/N=C/c1cc(F)ccc1O)c1cnc2c(C(F)(F)F)cccc2c1O`, the MIC worked out at 0.8 µg/mL (≈ 2.03 µM) in the assay with Streptococcus pyogenes; 2.5 µg/mL (≈ 6.36 µM) in [1]; 0.1 µg/mL (≈ 0.254 µM) against Escherichia coli; 10 µg/mL (≈ 25.4 µM) in [2]; 10 µg/mL (≈ 25.4 µM) in assay [4]; 0.1 µg/mL (≈ 0.254 µM) in the assay with Klebsiella pneumoniae. Further, the MIC was 10 µg/mL (≈ 25.4 µM) in assay [5]; 0.4 µg/mL (≈ 1.02 µM) with Pseudomonas aeruginosa; 10 µg/mL (≈ 25.4 µM) in assay [6]; 10 µg/mL (≈ 25.4 µM) in assay [7]; 0.8 µg/mL (≈ 2.03 µM) against Staphylococcus aureus. For the same compound, the “growth inhibition (GI)” value in [3] was below 90%.

As for `COc1ccc(NC(=O)NNC(=O)c2cnc3c(C(F)(F)F)cccc3c2O)cc1`, the MIC worked out at 0.4 µg/mL (≈ 0.952 µM) with Streptococcus pyogenes; 1.25 µg/mL (≈ 2.97 µM) in assay [1]; 0.1 µg/mL (≈ 0.238 µM) against Escherichia coli; 10 µg/mL (≈ 23.8 µM) in [2]; 10 µg/mL (≈ 23.8 µM) in assay [4]; 0.1 µg/mL (≈ 0.238 µM) in the assay with Klebsiella pneumoniae. The MIC stood at 10 µg/mL (≈ 23.8 µM) in [5]; 0.4 µg/mL (≈ 0.952 µM) in the assay with Pseudomonas aeruginosa; 1 µg/mL (≈ 2.38 µM) in assay [6]; 12.5 µg/mL (≈ 29.7 µM) in [7]; 0.8 µg/mL (≈ 1.9 µM) in the assay with Staphylococcus aureus. For the same compound, the “growth inhibition (GI)” value in [3] turned out to be 90%.
